# Patent EP2154155B1, “Analysis of agonist-activity and antagonist-activity to cytokinin receptor” (Sumitomo Chemical Company, Limited, priority 2001, dated 2002)
# Assays:
# [1] = tested on: Arabidopsis thaliana cytokinin receptor AHK2, SEQ ID No: 2, expressed in transformed cell TM182-AHK2; assay: Agonist-activity search: optical density of TM182-AHK2 liquid culture in 96-well plate; type: cell-based; settings: examinee substance 100 µM at the final concentration, DOLU + Glu medium, 30°C, 24 hours, DMSO blank 0.01
# Method: (§2) The pre-cultured solutions were diluted with DOLU + Glu media as to become 0.100 as the optical density (OD600) and further the resultants were diluted with DOLU + Glu media at a dilution rate of 1/200 to obtain diluted pre-cultured solutions.
# (§3) An assay plate was prepared by filling respective wells of a 96-well plate with 20 µl of solutions which were prepared by diluting DMSO solution (10mM) of each examinee substance with DOLU + Glu medium at a dilution rate of 1/100, said solutions containing each examinee substance to be 100 µM at the final concentration. Simultaneously, an assay plate only filled with 20 µl of solutions which were prepared by diluting DMSO solution with DOLU + Glu medium, said solutions containing no examinee substance, was prepared as the blank sections.
# (§4) The diluted pre-cultured solutions were added in 200 µl each into the respective wells of both assay plates and cultured at 30°C for 24 hours and then the optical density (OD620) of each well was measured by a plate reader. The agonist-activity of the examinee substances to the cytokinin receptor was detected by comparing the optical density measured in the testing sections to which the examinee substances were added with the optical density measured in the blank sections.
# [2] = tested on: Arabidopsis thaliana cytokinin receptor AHK3, SEQ ID No: 4, expressed in transformed cell TM182-AHK3; assay: Agonist-activity search: optical density of TM182-AHK3 liquid culture in 96-well plate; type: cell-based; settings: examinee substance 100 µM at the final concentration, DOLU + Glu medium, 30°C, 24 hours, DMSO blank 0.51
# Method: as §2, §3, §4
# [3] = tested on: Arabidopsis thaliana cytokinin receptor AHK2 variant AHK2Δ (partially transmembrane region-deleted type, amino acid number 196 to 1176 of SEQ ID No: 2) …; assay: Agonist-activity search: optical density of TM182-AHK2Δ liquid culture in 96-well plate; settings: examinee substance 100 µM at the final concentration, DOLU + Glu medium, 30°C, 24 hours, DMSO blank 0
# Method: The transformed cells TM 182-CRE 1, TM182-AHK2,TM182-AHK2 Δ and TM182-AHK3 produced in the example 12 were inoculated in 200 ml of DOLU + Gal culture media and pre-cultured at 30°C for 36 hours. The pre-cultured solutions were diluted with DOLU + Glu media as to become 0.100 as the optical density (OD600) and further the resultants were diluted with DOLU + Glu media at a dilution rate of 1/200 to obtain diluted pre-cultured solutions.
# An assay plate was prepared by filling respective wells of a 96-well plate with 20 µl of solutions which were prepared by diluting DMSO solution (10mM) of each examinee substance with DOLU + Glu medium at a dilution rate of 1/100, said solutions containing each examinee substance to be 100 µM at the final concentration. […]
# as §4
# [4] = tested on: Arabidopsis thaliana cytokinin receptor CRE1, SEQ ID No: 6, expressed in transformed cell TM182-CRE1; assay: Growth of transformed yeast cells TM182-CRE1 spotted on DOLU + Glu agar media containing cytokinin; type: cell-based; settings: 30°C, 30 hours; for lowest observed supply concentration in which the transformed cells could be grown: DOLU + Glu agar media, cytokinin 1 nM to 100 µM
# Source text: More particularly, for example, in the case of using a transformed cell (that is, a transformed cell having a function of directly controlling the cell growth by intracellular signal transduction from the cytokinin receptor) produced using TM182 (sln1 Δ) [Maeda T et al, Nature 369: 242-245 (1994)], a SLN1 genetically defected strain in which, for example, PTP2 Tyrosine phosphatase gene [Ota et al. Proc. N. A. Sci., USA, 89, 2355-2359 (1992)] is introduced as a host cell, the agonist-activity to the cytokinin receptor may be measured using, as an indicator, the quantity of the cell growth of the transformed cell in a culture medium (an agar culture medium or a liquid culture medium) containing glucose as a carbon source, for example, a DOLU + Glu culture medium. In the case of the DOLU + Glu culture medium to which the examinee substance is added, the examinee substance found capable of growing the transformed cell can be evaluated as a substance having the agonist-activity to the cytokinin receptor. On the other hand, in the case of the DOLU+Glu culture medium to which the examinee substance and a substance having the agonist-activity to the cytokinin receptor are added, the examinee substance found capable of suppressing or inhibiting the growth of the transformed cell can be evaluated as a substance having the antagonist-activity to the cytokinin receptor.
# Transformation of TM182 (sln1Δ), SLN1 genetically detected strain, [Maeda T et al. Nature: 369 242-245 (1994)] was carried out using the obtained expression plasmid p415CYC-CRE1 (the example 5), p415CYC-AHK2 (the example 11), p415CYC-AHK2 Δ (the example 11) and p415CYC-AHK3 (the example 8). The transformation was carried out by employing Polyethylene glycol/lithium acetate (PEG/LiAc)-mediated transformation method according to the description of VII. Library Transformation & Screening Protocols disclosed in […] Two-Hybrid System 3 User Manual p.
# After incubation, the growth state of the transformed cells was observed and photographed by a digital camera. […]
# [5] = tested on: Arabidopsis thaliana cytokinin receptor AHK2, SEQ ID No: 2, expressed in transformed cell TM182-AHK2; settings: 30°C, 30 hours
# Source text: (§1) More particularly, for example, in the case of using a transformed cell (that is, a transformed cell having a function of directly controlling the cell growth by intracellular signal transduction from the cytokinin receptor) produced using TM182 (sln1 Δ) [Maeda T et al, Nature 369: 242-245 (1994)], a SLN1 genetically defected strain in which, for example, PTP2 Tyrosine phosphatase gene [Ota et al. Proc. N. A. Sci., USA, 89, 2355-2359 (1992)] is introduced as a host cell, the agonist-activity to the cytokinin receptor may be measured using, as an indicator, the quantity of the cell growth of the transformed cell in a culture medium (an agar culture medium or a liquid culture medium) containing glucose as a carbon source, for example, a DOLU + Glu culture medium. In the case of the DOLU + Glu culture medium to which the examinee substance is added, the examinee substance found capable of growing the transformed cell can be evaluated as a substance having the agonist-activity to the cytokinin receptor. On the other hand, in the case of the DOLU+Glu culture medium to which the examinee substance and a substance having the agonist-activity to the cytokinin receptor are added, the examinee substance found capable of suppressing or inhibiting the growth of the transformed cell can be evaluated as a substance having the antagonist-activity to the cytokinin receptor. […]
# [6] = tested on: Arabidopsis thaliana cytokinin receptor AHK2 variant AHK2Δ (partially transmembrane region-deleted type, amino acid number 196 to 1176 of SEQ ID No: 2) …; assay: Growth of transformed yeast cells TM182-AHK2Δ spotted on DOLU + Glu agar media containing cytokinin; type: cell-based; settings: 30°C, 30 hours
# Source text: as §1
# [7] = tested on: Arabidopsis thaliana cytokinin receptor AHK3, SEQ ID No: 4, expressed in transformed cell TM182-AHK3; settings: DOLU + Glu agar media containing 10 µM of trans-zeatin, 30°C, 30 hours, compared with media containing no trans-zeatin
# Source text: as §1
# [8] = DOLU + Glu agar media, cytokinin 1 nM to 100 µM
# [9] = DOLU + Glu agar media containing 10 µM of trans-zeatin, compared with media containing no trans-zeatin
structure (smiles),measurement,setting,value
"CC1=CC(=O)CC(C)(C)[C@@]1(O)/C=C/C(C)=C\C(=O)O [Compound A, Abscisic acid]",optical density (OD620) of the culture solutions of the transformed cells,[1],0.01
same,optical density (OD620) of the culture solutions of the transformed cells,[2],0.54
"c1ccc(CNc2ncnc3nc[nH]c23)cc1 [Compound B, 6-Benzyl aminopurine]",optical density (OD620) of the culture solutions of the transformed cells,[1],0.45
same,optical density (OD620) of the culture solutions of the transformed cells,[2],0.88
same,optical density (OD620) of the culture solutions of the transformed cells,[3],0.89
C/C(=C/CNc1ncnc2[nH]cnc12)CO [cis-zeatin],lowest observed supply concentration in which the transformed cells could be grown,[4],no growth
same,lowest observed supply concentration in which the transformed cells could be grown,[5]; [8],10 µ M
C/C(=C\CNc1ncnc2[nH]cnc12)CO [trans-zeatin],growth state of the transformed cells,[4]; [9],high growth
same,lowest observed supply concentration in which the transformed cells could be grown,[4],10 µ M
same,growth state of the transformed cells,[5]; [9],high growth
same,growth state of the transformed cells,[6]; [9],high growth
same,lowest observed supply concentration in which the transformed cells could be grown,[6]; [8],100 nM
same,growth state of the transformed cells,[7],high growth
